Tests used:
[1] = test system: scopolamine induced amnesy; experiment: passive avoidance test, scopolamine induced amnesia (intraperitoneal administration); format: in vivo, rat; settings: scopolamine 1 mg/kg; for Avoid. time (sec.) After 24 h: re-test after 24 h, end-point 300 second
Method: (§1) The antiamnesic activity was tested by means of the classical passive avoidance test, with respect to the amnesy induced in the rat, by administration of scopolamine, or by means of electroconvulsive shock (ECS).For both the tests a shuttle-box was used of the Ugo Basile Company (Comerio, Varese), consisting of two compartments, one of which compartments was clear and the other one dark and fitted with an electrifiable floor.
(§2) In order to induce a passive avoidance response, the animal was placed onto a runner of the clear compartment, enlightened by a 60 watt lamp, for a 1 minute acclimatisation, whereafter a bulkhead was opened putting the runner in communication with the dark compartment, which the animal istinctively entered after a latency of a few seconds. The bulkhead was immediately shut and the animal got a 0.21 mA current for 2 second through the electrifiable floor. The animal was then removed and newly subjected to the test 24 h later, in order to verify the retention level of the acquired response of passive avoidance, measuring the latency required by the entry into the electrifiable compartment, with an end-point of 300 second.
(§3) All the tests were carried out under conditions of stratified randomization, using in each test session the same number of animals for the different experimental groups tested in parallel, and comprising, besides the groups treated with the product under test (test substances and reference substances having known activity), two separate groups of controls and precisely: blank controls (animals treated with placebo) and deconditioned controls (animals treated with placebo and subjected to amnesic treatment by means of scopolamine or of ECS).
(§4) The results obtained with the different dosages of the products subjected to screening and with the corresponding reference standards having a known activity, namely N(S)-3-(formyl-amino)-epsilon-caprolactam, N(4-phenylbutanoyl-hydroxy)prolyl-pyrrolidine and glycerophosphoryl-serine, were expressed as a percentage of antagonism of the amnesy (AA), defined according to the following formula: [formula] wherein the index of comparison IC, concerning treated animals (t) and blank controls (b), is defined by the formula: [formula] wherein: Nm = number of animals belonging to group m (blanks or treated animals); Nn = number of animals belonging to group n (deconditioned animals); Amn = binary function which can assume only the values +1, zero or - 1, depending on the fact that the latency time (seconds) of an animal of the m group (xm) be respectively higher than, equal to or lower than the latency time (seconds) of an animal of the n group (xn).
(§5) The summation Σ Amn i extended to all the pairs obtained combining each xm term with each xn term.
(§6) Normally the comparison index (IC) between blank controls and deconditioned controls is between 60% and 80% and the test was discarded when such index resulted to be lower than 40%.
The utilized rats were male C.r.l.: CD (50) BR (Charles River Italia), showing a weight of 150-170 g, after an acclimatisation time of a week, under standard conditions.
The animals got the products to be tested by intraperitoneal way and scopolamine bromhydrate (1 mg/kg) by subcutaneous way, respectively 45 and 30 minutes before being subjected to the previously described avoidance test.
As to the standard substances [GFS, N(S)-3-(formylamino)-epsilon-caprolactam and N(4-phenylbutanoylhydroxy)prolyl-pyrrolidine], the used dosage was 4x10⁻² mmol/kg, whereas for the products to be tested the used dosage was between 1x10⁻² and 12x10⁻² mmol/kg, with an intermediate dosage equimolar with respect to the one of the standards.

ECS engendered amnesy = experiment: passive avoidance test, electroconvulsive shock (ECS) induced amnesia; format: in vivo, rat; settings: groups of 10
Method: as §1, §2, §3, §4, §5, §6
The animals got the products to be tested 30 minute before undergoing the previously described avoidance test.
In this series of experimental works the deconditioning treatment consists of an electroshock (square wave of 45 m, amplitude 0.6 ms, time 2 s and frequency 40 Hz), delivered by means of auricular electrodes, connected to an electrostimulator ECT/UNIT of the Ugo Basile Company (Comerio, Varese).
The used dosages were 8x10⁻² mmol/kg for the standard substances, therefore higher than the ones used in the preceeding test and this depends on a lower activity of the standard substances, previously ascertained in this test, in our experimental conditions.
The dosages of the products to be tested were correlatively comprised between 2x10⁻² and 24x10⁻² mmol/kg, with an intermediate dosage equimolar (8x10⁻² mmol/kg) with respect to the ones of the standard substances.

[2] = dose 8 x 10^-2 mmoli/kg i.p. 30' before the acquisition trial
[3] = dose 4 x 10^-2 mmoli/kg i.p. 30' before the acquisition trial
[4] = dose 12 x 10^-2 mmoli/kg i.p. 30' before the acquisition trial
[5] = dose 16 x 10^-2 mmoli/kg i.p. 30' before the acquisition trial

In the case of `N[C@@H](COP(=O)(O)OC[C@H](O)CO)C(=O)O` [GFS, glycerophosphoryl-serine, reference compound], the “No.of amnesic rats/No. of rats tested” value ([1]; dose 4.10^-2 mmoli/kg i.p.) is reported as 4/10, the Percent amnesia ([1]; dose 4.10^-2 mmoli/kg i.p.) is reported as 40% and the “Avoid. time (sec.) After 24 h” value ([1]; dose 4.10^-2 mmoli/kg i.p.) is reported as 126,5 sec. For the same compound, the “Time taken to enter chamber (min)” value (ECS engendered amnesy; [2]) was 0,236 min.

In the case of `COC(=O)CN1CCCC[C@H](NC(=O)[C@@H](N)COP(=O)(O)OC[C@@H](COC(C)=O)OC(C)=O)C1=O` [MGS 1], the “No.of amnesic rats/No. of rats tested” value ([1]; dose 4.10^-2 mmoli/kg i.p.) is reported as 2/10, the Percent amnesia ([1]; dose 4.10^-2 mmoli/kg i.p.) is reported as 20% and the “Avoid. time (sec.) After 24 h” value ([1]; dose 4.10^-2 mmoli/kg i.p.) is reported as 243,5 sec. The “No.of amnesic rats/No. of rats tested” value ([1]; dose 8.10^-2 mmoli/kg i.p.) was 1/10, the Percent amnesia ([1]; dose 8.10^-2 mmoli/kg i.p.) was 10% and the “Avoid. time (sec.) After 24 h” value ([1]; dose 8.10^-2 mmoli/kg i.p.) was 266,6 sec. For the same compound, the “No.of amnesic rats/No. of rats tested” value ([1]; dose 12.10^-2 mmoli/kg i.p.) was 0/10, the Percent amnesia ([1]; dose 12.10^-2 mmoli/kg i.p.) was 0% and the “Avoid. time (sec.) After 24 h” value ([1]; dose 12.10^-2 mmoli/kg i.p.) was 300 s. The “Time taken to enter chamber (min)” value (ECS engendered amnesy; [3]) was 0,664 min, the “Time taken to enter chamber (min)” value (ECS engendered amnesy; [2]) was 1,378 min and the “Time taken to enter chamber (min)” value (ECS engendered amnesy; [4]) was 1,916 min. For the same compound, the “Time taken to enter chamber (min)” value (ECS engendered amnesy; [5]) was 1,615 min.

`COC(=O)CN1CCCC[C@H](NC(=O)[C@@H](N)COP(=O)(O)OC[C@H](O)CO)C1=O` [MGS 2] was tested, and the “No.of amnesic rats/No. of rats tested” value ([1]; dose 4.10^-2 mmoli/kg i.p.) was 2/10, the Percent amnesia ([1]; dose 4.10^-2 mmoli/kg i.p.) was 20% and the “Avoid. time (sec.) After 24 h” value ([1]; dose 4.10^-2 mmoli/kg i.p.) was 270 s. The “No.of amnesic rats/No. of rats tested” value ([1]; dose 8.10^-2 mmoli/kg i.p.) was 0/10, the Percent amnesia ([1]; dose 8.10^-2 mmoli/kg i.p.) was 0% and the “Avoid. time (sec.) After 24 h” value ([1]; dose 8.10^-2 mmoli/kg i.p.) was 300 s. The “No.of amnesic rats/No. of rats tested” value ([1]; dose 12.10^-2 mmoli/kg i.p.) was 0/10, the Percent amnesia ([1]; dose 12.10^-2 mmoli/kg i.p.) was 0% and the “Avoid. time (sec.) After 24 h” value ([1]; dose 12.10^-2 mmoli/kg i.p.) was 300 s. The “Time taken to enter chamber (min)” value (ECS engendered amnesy; [3]) was 0,557 min, the “Time taken to enter chamber (min)” value (ECS engendered amnesy; [2]) was 1,418 min and the “Time taken to enter chamber (min)” value (ECS engendered amnesy; [4]) was 2,072 min. For the same compound, the “Time taken to enter chamber (min)” value (ECS engendered amnesy; [5]) was 1,777 min.

`N[C@@H](COP(=O)(O)OC[C@H](O)CO)C(=O)N[C@H]1CCCCNC1=O` [MGS 4] was tested, and the “Time taken to enter chamber (min)” value (ECS engendered amnesy; [2]) was 0,466 min, the “Time taken to enter chamber (min)” value (ECS engendered amnesy; [4]) was 1,316 min and the “Time taken to enter chamber (min)” value (ECS engendered amnesy; dose 24 x 10^-2 mmoli/kg i.p. 30' before the acquisition trial) was 1,883 min.

For `O=CN[C@H]1CCCCNC1=O` [N-Formylamino ε -caprolactame, N(S)-3-(formyl-amino)-epsilon-caprolactam, reference compound], the “No.of amnesic rats/No. of rats tested” value ([1]; dose 4.10^-2 mmoli/kg i.p.) was 4/10, the Percent amnesia ([1]; dose 4.10^-2 mmoli/kg i.p.) was 40% and the “Avoid. time (sec.) After 24 h” value ([1]; dose 4.10^-2 mmoli/kg i.p.) was 72,5 sec. For the same compound, the “Time taken to enter chamber (min)” value (ECS engendered amnesy; [2]) was 0,131 min.

With “N(4-phenylbutanoyl-hydroxy)prolyl-pyrrolidine [Phenyl-butirryl prolyl-pirrolidine, reference compound]” the “No.of amnesic rats/No. of rats tested” value ([1]; dose 4.10^-2 mmoli/kg i.p.) was 4/10, the Percent amnesia ([1]; dose 4.10^-2 mmoli/kg i.p.) was 40% and the “Avoid. time (sec.) After 24 h” value ([1]; dose 4.10^-2 mmoli/kg i.p.) was 101,7 sec. For the same compound, the “Time taken to enter chamber (min)” value (ECS engendered amnesy; [2]) was 0,213 min.

Source: patent EP0557936A1, “Amidic derivatives of (R)-glycerophosphoryl-(S)-serine or of its diacyl derivative, process for their preparation and relative pharmaceutical compositions for the improvement of the learning processes” (MAGIS FARMACEUTICI S.p.A., priority 1992, dated 1993)
